# In PubChem BioAssay AID1996:
# Conditions: buffer; pH 7.4; 200.0 µM
row,SMILES,solubility kinetic [µg/mL]
1,C/C(=C\C(=O)c1ccc(Cl)s1)N(C)C,> 34.5
2,C#CCOn1c(-n2nc(C)cc2C)nc2ccccc2c1=O,> 44.1
3,CCCCn1c(=O)[nH]c2c(oc3ccccc32)c1=O,1.7
4,O=C1CSC(=S)N1c1cccc(F)c1,1
5,O=C(NCC1CCCO1)c1ccc(NC(=O)c2cccc([N+](=O)[O-])c2)cc1 (stereo unspecified),3.5
6,O=C(c1ccc(Sc2ccccc2)c([N+](=O)[O-])c1)N1CCOCC1,49.9
7,COc1ccccc1NC(=S)N1CCCCCC1,> 39.7
8,O=C(N/C(=C\c1ccc(Cl)cc1)C(=O)N1CCOCC1)c1ccco1,> 54.1
9,O=C(NC(=S)NCc1ccccc1Cl)c1cccs1,3.2
10,Cc1ccc2c(c1)N(CC(=O)N1CCCCC1C)C(=O)CO2 (stereo unspecified),> 45.4
11,COc1cccc2cc(C(=O)NCCN3CCOCC3)c(=O)oc12,> 49.9
12,Cc1cc(C)c(C)c(S(=O)(=O)NCC(=O)Nc2ccccc2F)c1C,12.2
13,CC(O)CNc1nc2c(c(=O)n(Cc3cccc(Cl)c3)c(=O)n2C)n1C (stereo unspecified),50.5
14,COc1ccc(OC)c(NC(=S)N2CCCC2)c1,> 40
15,Cc1noc(C)c1CNCc1ccccc1.O=C(O)C(=O)O,> 45.9
16,Cc1cc(=O)[nH]c(Nc2cccc(F)c2)n1,> 32.9
17,COc1ccc2nc(-c3ccccn3)[nH]c2c1,24.8
18,CC12CCC(=O)N1C(C(=O)NCCc1ccc(F)cc1)CS2 (stereo unspecified),46.3
19,O=C(Nc1ccccc1F)OC1CN2CCC1CC2 (stereo unspecified),> 39.6
20,Nc1nc2ccccc2n1CCOc1ccc(Br)cc1,27.2
21,OC1CCN(Cc2cccc3ccccc23)CC1,29.3
22,OCC1(CO)COC(c2ccccc2)=N1,> 31.1
23,CCS(=O)(=O)Nc1cc2c3c(c1)CCN3C(=O)CC2,> 42.1
24,Cc1ccc(C(OC(=O)c2ccco2)C(=O)NC2CCCC2)cc1 (stereo unspecified),2
25,O=C1CN(C(=O)NCC(=O)N2CCCC2)c2ccccc2N1,> 45.3

row,SMILES,solubility kinetic [µg/mL]
1,Cc1cc(=O)n2c(n1)SCOC2,> 27.6
2,COc1ccc(CCNC(=O)CN(C)S(=O)(=O)c2ccc(OC)cc2)cc1,> 58.9
3,CN1CCN(c2ccccc2NC(=O)c2cccs2)CC1,> 45.2
4,CC1(NC(=O)Cc2csc(-c3ccc(Cl)cc3)n2)CCS(=O)(=O)C1 (stereo unspecified),> 57.7
5,COc1ccc(/C=C/C(=O)O)cc1S(=O)(=O)NCc1ccccc1,49.6
6,OCC1(CC2CCCCO2)CCN(Cc2cccc(O)c2)CC1 (stereo unspecified),47.3
7,O=C(CNC(=O)c1ccc(Br)o1)NC12CC3CC(CC(C3)C1)C2,50.5
8,O=C(c1ccc(Cl)cc1)N1CCN(CCOc2ccccc2)CC1,> 51.7
9,CCc1nc2oc3ccccc3c(=O)c2cc1C(=O)OC,4.2
10,CCCNC(=O)CSc1nc2ccccc2c(=O)n1CCC,27.1
11,Cc1[nH]c(=O)[nH]c(=O)c1NC(=O)c1ccc(OC(C)C)cc1,> 45.5
12,CC(=O)c1sc(-c2ccc(F)cc2)cc1NS(=O)(=O)c1ccccc1,0.9
13,COc1cc(/C=C/C(=O)N2CCc3ccccc3C2)cc(OC)c1OC,46.6
14,Cc1cc(C)cc(NC(=O)Nc2ccc3ccccc3n2)c1,< 0.2
15,CCC1(c2ccc(Cl)cc2)NC(=O)N(CC(=O)N2CCN(C(=O)c3ccco3)CC2)C1=O (stereo unspecified),> 68.8
16,CC(C)(C)NC(=O)C1CCN(C(=O)c2ccco2)CC1,41.2
17,O=C(c1ccc([N+](=O)[O-])cc1[N+](=O)[O-])N1CCCC1,> 39.8
18,Cc1[nH]c2ccccc2c1C(O)CN1CCC2(CC1)OCCO2 (stereo unspecified),> 47.5
19,O=C(CC(=O)c1ccccc1)Nc1ccccc1,29.5
20,CSc1ccccc1NC(=O)COC(=O)/C=C/c1ccco1,16.9
21,O=C(NCc1ccc(F)cc1)Nc1ccccc1,9.3
22,COc1ccc(CCC(=O)NCCc2nc3ccccc3[nH]2)cc1,8.8
23,Cc1cc(C)nc(NC(=O)NC(=O)c2ccccc2)n1,> 40.5
24,O=C(COC(=O)CCSc1ccccc1)NCc1ccccc1,> 49.4
25,Cc1ccnc(NCc2c(O)ccc3ccccc23)c1,9.2

row,SMILES,solubility kinetic [µg/mL]
1,Cn1c(S(=O)(=O)O)nc2ccccc21,31.5
2,C/C=C/C(=O)N1c2ccc(C)cc2C(C)=CC1(C)C,1.2
3,COc1ccc(CCN=C(N)Nc2nc(C)cc(C)n2)cc1,36.5
4,Cc1ccc(C)c(C(C)NC(=O)c2ccncc2)c1 (stereo unspecified),36
5,O=C(Nc1cccc(O)c1)c1cccc(C(=O)Nc2cccc(O)c2)c1,1.8
6,Cc1ccc(C(=O)N2CCn3c(C)ccc3C2C)cc1 (stereo unspecified),23.1
7,O=C1NC2(CCCC2)C(=O)N1Cc1cc(=O)n2ccsc2n1,> 47.8
8,Cc1ccc(C)c(-c2csc(NC(=O)C3=COCCO3)n2)c1,11.3
9,O=C(CSc1nncn1-c1ccccc1F)NC1CC1,> 43.8
10,Cc1ccccc1NC(=O)NCC1CCN(C(=O)OC(C)(C)C)CC1,> 52.1
11,NC(=O)C1CCN(C(=O)COc2ccc3c4c(c(=O)oc3c2)CCCC4)CC1,> 57.7
12,CN(Cc1ccccc1)C(NC(=O)c1ccco1)C(Cl)(Cl)Cl (stereo unspecified),28.2
13,Cc1noc(NS(=O)(=O)c2ccc(NC(=O)C(C)C)cc2)c1C,> 50.6
14,Cc1ccc(C(=O)COC(=O)CN2C(=O)C3C4CCC(C4)C3C2=O)cc1C (stereo unspecified),46.2
15,COC(=O)CC1C(=O)NCCN1C(=O)c1cc([N+](=O)[O-])ccc1Cl (stereo unspecified),52.9
16,CCCOc1ccc(N2C(=O)CC(NCC(=O)OCC)C2=O)cc1 (stereo unspecified),> 50.2
17,CSc1ncccc1C(=O)OCC(=O)N(C)C,> 38.1
18,COCCCNc1nc(N)c([N+](=O)[O-])c(NCc2ccccc2)n1,7.4
19,CC(=O)C1=C(C)NC2=C(C(=O)c3ccccc32)C1c1ccccc1 (stereo unspecified),0.8
20,O=C(NCCN1CCOCC1)c1c(O)nc2ccccn2c1=O,> 47.7
21,C=CC[n+]1cccc(-c2cc3ccc(C)cc3[nH]2)c1.[Br-],> 49.4
22,FC(F)(F)c1cnc(COc2ccc(Cl)cc2Cl)c(Cl)c1,< 0.8
23,Cc1cccc(-c2nc3sc(C)cc3c(=O)o2)c1,< 0.6
24,Cc1cccc(-n2c(O)c(C=NCCN3CCNCC3)c(=O)[nH]c2=S)c1,51.2
25,CCN1CCC(N2CCN(c3ccc(F)cc3)CC2)CC1,35.5

row,SMILES,solubility kinetic [µg/mL]
1,Cc1ccccc1-c1nnc(SCC(=O)N(C)C2CCS(=O)(=O)C2)n1C (stereo unspecified),> 59.2
2,Cc1ccc(C(CC(=O)NCCCN(C)C)c2ccc(OC(C)C)cc2)cc1 (stereo unspecified),52.9
3,Cc1[nH]n2cnnc2c(=O)c1Br.O=S(=O)(O)O,> 49.1
4,COc1ccc2[nH]cc(S(=O)(=O)c3ccc(C)cc3)c2c1,30.2
5,CC(=O)c1ccc(-n2c(C)c(C(C)=O)c3cc(O)ccc32)cc1,< 0.7
6,Cc1noc(C)c1COC(=O)/C=C/c1ccccc1Cl,6.8
7,O=C1NCCN1CCNS(=O)(=O)c1ccc(F)c(Cl)c1,> 48.3
8,CCN1CCN(c2ncnc3sc4c(c23)CCC(C)C4)CC1 (stereo unspecified),26.4
9,CC(C)C(=O)NNC(=O)c1csc(-c2cccs2)n1,> 44.3
10,Cl.N=c1ccn(Cc2ccc([N+](=O)[O-])cc2)cc1,> 39.9
11,COc1ccc(CCC(=O)NCCc2ccc(Cl)cc2)cc1,3.7
12,CC1CCC(NC(=O)C(Cc2ccccc2)n2cccc2)CC1 (stereo unspecified),19.2
13,Cc1ccc(Nc2ccc(C(=O)O)cc2[N+](=O)[O-])cc1,> 40.8
14,O=C(O)CN1C(=O)CSC1=S,> 28.7
15,c1ccc(Cn2c(NCc3ccccn3)nc3ccccc32)cc1,> 47.2
16,Cc1onc(-c2ccccc2)c1NC(=O)N(CCC#N)Cc1cccs1,54.4
17,CCOc1ccc2nc(NC(=O)c3ccc(C)o3)sc2c1,0.6
18,COCCNc1ncnc2c1nc1n2CCCC1,> 37.1
19,CCOC1C(=O)NC(=O)N1Cc1ccccc1 (stereo unspecified),29.8
20,C#CCn1cnc2c(oc3ccccc32)c1=O,> 33.6
21,O=C(CSc1ccccn1)Nc1ccc2c(c1)OCCO2,> 45.4
22,O=C1CN(C(=O)COC(=O)c2ccc(Br)o2)c2ccccc2N1,9.5
23,O=C(NCCc1ccccc1)c1ccccc1Cl,> 39
24,O=C(c1cnccn1)N1CCN(S(=O)(=O)c2cccc(Cl)c2)CC1,> 55
25,CCOC(=O)C1CCN(S(=O)(=O)c2ccc(Cl)nc2)CC1,47.3

row,SMILES,solubility kinetic [µg/mL]
1,O=C(NCc1cccc(Cl)c1)c1ccc2ccccc2n1,3.6
2,O=C(Cn1c(=O)[nH]c2ccccc2c1=O)Nc1cccnc1,> 44.4
3,COC(=O)c1cc2c(=O)c3ccccc3oc2nc1C,5.4
4,c1csc(-c2nc3ccccc3s2)c1,0.7
5,Cc1cc(N2CCOCC2)nc(C(C)C)n1,32.4
6,CC1CCC(NC(=O)CCNS(=O)(=O)c2ccccc2)CC1 (stereo unspecified),> 48.7
7,COc1ccccc1-n1ccnc1SCC(=O)NC1CCCC1,45.3
8,O=C(O)CSc1nc2ccc(C(=O)c3ccccc3)cc2[nH]1,44.4
9,O=C(NC1CCCCC1)c1cc(-c2cccc(Cl)c2)on1,0.7
10,O=C(CNC(=O)C1CCCCC1)OCC(=O)c1ccc(F)cc1,> 48.2
11,CC(C)c1ccccc1NC(=S)NCC1(N(C)C)CCCCC1,45.9
12,O=S(=O)(c1cccc(-c2n[nH]c(=S)n2-c2ccccc2Cl)c1)N1CCOCC1,> 65.5
13,Cc1ccccc1Cn1c(=O)n(C)c(=O)c2sccc21,5.9
14,COc1ccccc1N1CC(C(=O)Nc2ccc(S(=O)(=O)N3CCCC3)cc2)CC1=O (stereo unspecified),> 66.5
15,CNC(=S)NNC(=O)c1cccc(N(C)C)c1,> 37.9
16,CC(=O)c1nc2ccccc2n1Cc1ccccc1,14.5
17,CCOC(=O)CSc1nc(C(C)(C)C)nc2ccccc12,0.7
18,CC(C)n1c(NCCO)nc2ccccc21,> 32.9
19,O=C(O)c1cccc(NC2=Nc3cccc4cccc2c34)c1,36.7
20,CCOc1ccccc1N(CC(=O)N1CCCC1)S(C)(=O)=O,> 49
21,COC(=O)c1nn(-c2cccc(C(F)(F)F)c2)ccc1=O,> 44.7
